Data published in PubChem BioAssay (NCI).
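1) Cells in 96-well plates. 2) Compound, 48 h, 5 concentrations. 3) Linear interpolation between surrounding doses. 4) Unreached endpoint = highest concentration. The concentration for 50% growth inhibition is given as GI50. TGI: concentration producing complete growth inhibition.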

Columns and labels:
Experiment in all cases: DTP human tumour cell line panel, 48 h
MDA-MB-231 breast = system: MDA-MB-231 breast
MALME-3M melanoma = system: MALME-3M melanoma
RPMI-8226 leukemia = system: RPMI-8226 leukemia
SF-268 CNS = system: SF-268 CNS
CCRF-CEM leukemia = system: CCRF-CEM leukemia
HL-60(TB) leukemia = system: HL-60(TB) leukemia
MOLT-4 leukemia = system: MOLT-4 leukemia
HS 578T breast = system: HS 578T breast
SF-295 CNS = system: SF-295 CNS
786-0 renal = system: 786-0 renal
UACC-257 melanoma = system: UACC-257 melanoma
MDA-MB-435 = system: MDA-MB-435
OVCAR-3 ovarian = system: OVCAR-3 ovarian
ACHN renal = system: ACHN renal
A549 NSCLC = system: A549 NSCLC
K-562 leukemia = system: K-562 leukemia
COLO 205 colon = system: COLO 205 colon
RXF 393 renal = system: RXF 393 renal
KM12 colon = system: KM12 colon
MCF7 breast = system: MCF7 breast
NCI-H460 lung = system: NCI-H460 lung
NCI-H23 lung = system: NCI-H23 lung
SW-620 colon = system: SW-620 colon
OVCAR-8 ovarian = system: OVCAR-8 ovarian
NCI/ADR-RES ovarian = system: NCI/ADR-RES ovarian
UO-31 renal = system: UO-31 renal
HOP-92 NSCLC = system: HOP-92 NSCLC
IGROV1 ovarian = system: IGROV1 ovarian

## Cc1cc(C)c(CNC(=O)c2cc(Cl)c3c(c2C)O[C@@](C)(C2CCC(N(C)C)CC2)O3)c(=O)[nH]1 (stereo partly specified)
MDA-MB-231 breast
  GI50: 59.5 µM
  TGI: > 100 µM
MALME-3M melanoma
  GI50: 45.3 µM
  TGI: > 100 µM
RPMI-8226 leukemia
  GI50: 38 µM
  TGI: > 100 µM
SF-268 CNS
  GI50: 60.7 µM
  TGI: > 100 µM
CCRF-CEM leukemia
  GI50: 49.9 µM
  TGI: > 100 µM
HL-60(TB) leukemia
  GI50: 61.5 µM
  TGI: > 100 µM
MOLT-4 leukemia
  GI50: 58.6 µM
  TGI: > 100 µM
HS 578T breast
  GI50: 32.5 µM
  TGI: > 100 µM
SF-295 CNS
  GI50: > 100 µM
  TGI: > 100 µM
786-0 renal
  GI50: 33.1 µM
  TGI: > 100 µM
UACC-257 melanoma
  GI50: 95.3 µM
  TGI: > 100 µM
MDA-MB-435
  GI50: 58 µM
  TGI: > 100 µM
OVCAR-3 ovarian
  GI50: > 100 µM
  TGI: > 100 µM
ACHN renal
  GI50: > 100 µM
  TGI: > 100 µM
A549 NSCLC
  GI50: 71.6 µM
  TGI: > 100 µM
K-562 leukemia
  GI50: 41.6 µM
  TGI: > 100 µM
COLO 205 colon
  GI50: > 100 µM
  TGI: > 100 µM
RXF 393 renal
  GI50: 15.9 µM
  TGI: 71.5 µM
KM12 colon
  GI50: > 100 µM
  TGI: > 100 µM
MCF7 breast
  GI50: 49.5 µM
  TGI: > 100 µM
NCI-H460 lung
  GI50: > 100 µM
  TGI: > 100 µM
NCI-H23 lung
  GI50: 75.6 µM
  TGI: > 100 µM
SW-620 colon
  GI50: > 100 µM
  TGI: > 100 µM
OVCAR-8 ovarian
  GI50: > 100 µM
  TGI: > 100 µM
NCI/ADR-RES ovarian
  GI50: > 100 µM
  TGI: > 100 µM
UO-31 renal
  GI50: 45.6 µM
  TGI: > 100 µM
HOP-92 NSCLC
  GI50: 18.4 µM
  TGI: > 100 µM
IGROV1 ovarian
  GI50: 70.5 µM
  TGI: > 100 µM
